Earlier results as cited in patent US20040248932A1, “Use of aryl- and heteroaryl-substituted tetrahydroisoquinolines in the treatment of chronic and neuropathic pain, migraine headaches, and urge, stress and mixed urinary incontinence” (priority 2002, published 2004).

Conditions: nocturnal enuresis, following treatment

CN(C)CCCN1c2ccccc2CCc2ccccc21 [imipramine, Imipramine]
further patients in whom improvements can be seen: 15-20%
patients in whom enuresis can be cured: over 50%
